Biological target: T1, Recombinant human His6-tagged galectin-3 (Gal-3) (Homo sapiens, UniProt P17931)
T1 construct: gene LGALS3; His6-tagged Gal-3 (tag kept), expressed in E. coli Rosetta 2 (DE3) pLysS, 28,023 Da calculated, monomer in solution
Test: competitive ELISA, Gal-3 binding to immobilized asialofetuin
Conditions: 6.5 µM Gal-3, EPBS buffer pH 7.5, 2 mM EDTA, 2 h; competitive with asialofetuin

T1 sequence (P17931 2-250): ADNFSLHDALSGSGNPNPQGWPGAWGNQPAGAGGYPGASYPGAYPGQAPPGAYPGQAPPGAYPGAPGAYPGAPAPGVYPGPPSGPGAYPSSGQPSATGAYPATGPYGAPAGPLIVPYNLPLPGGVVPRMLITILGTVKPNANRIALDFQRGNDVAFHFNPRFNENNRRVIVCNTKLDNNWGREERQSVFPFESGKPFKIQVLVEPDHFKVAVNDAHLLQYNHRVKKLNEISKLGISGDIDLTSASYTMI

SMILES	IC50
CC(=O)N[C@H]1C(O)O[C@H](CO)[C@@H](O[C@@H]2O[C@H](CO)[C@H](O)[C@H](O)[C@H]2O)[C@@H]1O (some centres unmarked) [LacNAc]	53 ± 16 µM
CC(=O)N[C@H]1[C@H](O[C@H]2[C@H](O)[C@@H](NC(C)=O)C(O)O[C@@H]2CO)O[C@H](CO)[C@H](O)[C@@H]1O (stereo partly drawn) [compound 5, 2-acetamido-2-deoxy-β-D-galactopyranosyl-(1 → 4)-2-acetamido-2-deoxy-D-glucopyranose]	64 ± 20 µM

Reference: article PMC6146777, “Biocompatible glyconanomaterials based on HPMA-copolymer for specific targeting of galectin-3” (Journal of Nanobiotechnology, 2018)
